Where “and” joins values, the source holds several entries; their conditions need not be identical. Equal values may be shown once. Read-outs that look alike come from different tables or passages of the source.

Assay [1] relates to SULT1E1. More on the design: method as in Ma et al. 2003. To be noted: ref Ma et al. 2003; cited from earlier work.
Assay [2] deals with SULT1A1. Further details: method as in Ma et al. 2003. To be noted: ref Ma et al. 2003; cited from earlier work.
For assay [3], the system named is SULT1A3. More on the design: method as in Ma et al. 2003. The following applies: ref Ma et al. 2003; cited from earlier work.
Assay [4] concerns the target T1, SULT1A3 (Homo sapiens, UniProt P0DMM9).
T1 construct: made in house; host or cells: Escherichia coli
In words: Kinetics of 3-OH-BaP sulfonation by partially purified cDNA-expressed SULT1A3. The following applies: concentration range up to 5 μM. Type of assay: biochemical. An excerpt: (§1) The expression of human SULT1A1*1, SULT1A3, SULT1B1, and SULT1E1 in Escherichia coli has been described previously ([Dajani et al. 1998]; [Wang et al. 1998]). We grew E. coli cells containing the respective sulfotransferase genes as described previously ([Falany et al. 1990], [1994]), and prepared 100,000g supernatant fractions for use in inhibition studies and for partial purification of the SULT enzymes. We purchased expressed SULT1A1*2 cytosolic extract from PanVera (Madison, WI) and used it as supplied.
(§2) The 100,000g supernatant fractions of SULT1A1*1, SULT1A3, SULT1B1, and SULT1E1 were partially purified by chromatographic methods ([Falany et al. 1990], [1994]). […] We analyzed active fractions by SDS-PAGE ([Laemmli 1970]) to assess the purity of each SULT enzyme. We stained the gels with Coomassie R-250 reagent and determined the percentage of protein present as each respective SULT enzyme by scanning densitometry.
(§3) We determined SULT activity with 3-OH-BaP as substrate by a fluorimetric assay of BaP-3-SO4 product formation, as described previously ([Wang et al. 2004]). […]
(§4) We determined the kinetic parameters for 3-OH-BaP sulfonation by partially purified preparations of the cDNA-expressed SULT isozymes under incubation conditions similar to those used for liver cytosol. […]

Assay [5] deals with T2, SULT1B1 (Homo sapiens, UniProt O43704).
T2 construct: made in house; host or cells: Escherichia coli
T2 sequence (O43704 whole entry): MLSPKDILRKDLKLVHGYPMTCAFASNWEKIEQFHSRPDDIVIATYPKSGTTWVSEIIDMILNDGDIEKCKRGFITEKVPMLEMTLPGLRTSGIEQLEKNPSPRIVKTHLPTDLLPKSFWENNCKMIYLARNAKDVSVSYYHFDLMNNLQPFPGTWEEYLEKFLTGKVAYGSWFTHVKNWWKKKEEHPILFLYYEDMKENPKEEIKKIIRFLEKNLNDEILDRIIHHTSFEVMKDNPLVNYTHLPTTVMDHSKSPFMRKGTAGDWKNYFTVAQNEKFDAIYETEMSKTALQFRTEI
Put plainly: Kinetics of 3-OH-BaP sulfonation by partially purified cDNA-expressed SULT1B1. It is filed as biochemical. To be noted: concentration range up to 5 μM.
From the text: as §1, §2, §3, §4

In assay [6] the target is HL cytosol sulfotransferase (Homo sapiens, UniProt P50225). Put plainly: Kinetics of 3-OH-BaP sulfonation by human liver cytosol (fluorimetric assay of BaP-3-SO4 formation). It is filed as biochemical. As to the method: F.P. Guengerich (Vanderbilt University) kindly donated the samples of human liver, which were procured from organ donors ([Guengerich 1995]). We prepared liver cytosolic fractions from four livers by standard methods and stored aliquots at −80°C until use ([Wang et al. 2004]). We used three or four of these cytosol fractions in each experiment.
Chain of HL cytosol sulfotransferase (P50225 whole entry): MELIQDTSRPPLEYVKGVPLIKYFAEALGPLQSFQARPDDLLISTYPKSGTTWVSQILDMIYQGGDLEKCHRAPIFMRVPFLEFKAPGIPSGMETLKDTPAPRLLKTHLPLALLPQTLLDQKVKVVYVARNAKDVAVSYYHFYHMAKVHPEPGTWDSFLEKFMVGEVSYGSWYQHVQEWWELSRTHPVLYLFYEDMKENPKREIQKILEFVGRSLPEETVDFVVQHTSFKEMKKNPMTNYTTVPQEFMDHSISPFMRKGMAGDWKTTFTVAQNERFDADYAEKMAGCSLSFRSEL
(§5) We determined SULT activity with 3-OH-BaP as substrate by a fluorimetric assay of BaP-3-SO4 product formation, as described previously ([Wang et al. 2004]). […] Duplicate tubes were prepared for each incubation condition. We examined the kinetics of sulfonation in three liver cytosol fractions by systematically varying the concentration of 3-OH-BaP or PAPS. When the variable substrate was 3-OH-BaP, we used 12 concentrations in the range from 0.035 to 2.00 μM, and the concentration of PAPS was kept constant at 10 μM. When we varied PAPS, we used 7 concentrations from 0.157 to 10.0 μM and kept the concentration of 3-OH-BaP constant at 0.100 μM.
(§6) We calculated the enzyme kinetic parameters from studies with variable concentrations of 3-OH-BaP using nonlinear regression analysis and GraphPad 4.0 software (GraphPad Software, San Diego, CA). We selected the built-in Michaelis-Menten equation for most analyses. Where we found evidence of 3-OH-BaP substrate inhibition, we fit the data into an equation derived from a two-substrate model ([Zhang et al. 1998]): […]
(§7) This equation denoted the constant for binding of the first substrate (S) molecule as Km and the second substrate molecule as Ki. V1 is the maximum rate for the noninhibitory substrate concentration range, and V2 is the minimum rate in the inhibitory substrate concentration range

Assay [7] addresses T3, SULT1A1*1 (Homo sapiens, UniProt P50225).
T3 construct: made in house; host or cells: Escherichia coli
In words: Kinetics of 3-OH-BaP sulfonation by partially purified cDNA-expressed SULT1A1*1. Type of assay: biochemical.
From the text: as §1, §2, §3, §4

Assay [8] concerns the target T4, SULT1E1 (Homo sapiens, UniProt P49888).
T4 construct: made in house; host or cells: Escherichia coli
T4 sequence (P49888 1-294): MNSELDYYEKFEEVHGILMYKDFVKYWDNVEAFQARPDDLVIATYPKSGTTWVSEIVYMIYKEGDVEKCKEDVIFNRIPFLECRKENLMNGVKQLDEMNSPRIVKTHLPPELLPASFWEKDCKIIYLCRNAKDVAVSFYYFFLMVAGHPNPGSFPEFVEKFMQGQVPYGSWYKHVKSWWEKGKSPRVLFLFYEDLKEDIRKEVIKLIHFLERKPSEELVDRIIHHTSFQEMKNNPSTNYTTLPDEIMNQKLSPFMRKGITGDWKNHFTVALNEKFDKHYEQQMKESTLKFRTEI
In words: Kinetics of 3-OH-BaP sulfonation by partially purified cDNA-expressed SULT1E1. Type of assay: biochemical.
From the text: as §1, §2, §3, §4

For assay [9], the target named is T5, SULT1A1*2 (Homo sapiens, UniProt P50225, R213H).
T5 construct: purchased PanVera (Madison, WI); host or cells: Sf-9
T5 sequence (P50225 whole entry R213H): as the sequence (P50225 whole entry) above, with R213H counted along it
In words: Kinetics of 3-OH-BaP sulfonation by expressed SULT1A1*2. Type of assay: biochemical. To be noted: expressed SULT1A1*2.
From the text: as §1, §5
We determined the kinetic parameters for 3-OH-BaP sulfonation by partially purified preparations of the cDNA-expressed SULT isozymes under incubation conditions similar to those used for liver cytosol. For SULT1A1*1 and -1A1*2, we used seven substrate concentrations in the range from 5 to 100 nM; for SULT1E1 we used […] 3-OH-BaP concentrations from 15.6 to 1,000 nM; and for SULT1A3 and 1B1 we used seven concentrations of 3-OH-BaP from 0.25 to 5.0 μM.
as §6, §7

Assay [10] has as its target HL cytosol 3-OH-BaP sulfotransferase (Homo sapiens, UniProt P50225). Put plainly: Kinetics of 3-OH-BaP sulfotransferase inhibition by 4′-OH-CB112 in HL cytosol. Type of assay: biochemical. The method, then: To study the type of inhibition produced by OH-PCBs, we used 4′-OH-CB112 (B5) as a model inhibitor. We prepared four sets of assay tubes containing HL cytosol and varying amounts of 3-OH-BaP from 35 to 150 nM: one set (control) contained no 4′-OH-CB112; the other sets contained 0.25 μM, 0.5 μM, or 1.0 μM 4′-OH-CB112.
(§8) We calculated the effects of OH-PCBs on 3-OH-BaP SULT activity as percentage inhibition compared with the controls without an inhibitor. We obtained IC50 values by fitting log OH-PCB concentration and percent control activity to a sigmoidal curve. We examined the relationships between IC50 and physicochemical properties of the OH-PCBs by linear correlation analysis. We calculated the inhibitory constant (Ki) from the kinetic studies with 4′-OH-CB112 by means of Dixon plots and plots of Km/Vmax against inhibitor concentration ([Cornish-Bowden 1995]).

The target in assay [11] is T3, SULT1A1*1. Put plainly: Inhibition of 3-OH-BaP sulfotransferase activity by OH-PCBs with cDNA-expressed SULT1A1*1. Type of assay: biochemical. The following applies: mean of duplicates, read-out: IC50 SULT1A1*1.
From the text: as §1, §5
(§9) For each OH-PCB, we examined the concentration dependence of inhibition with three liver cytosol fractions, as well as with cytosol fractions from the E. coli expressing SULT1A1*1, SULT1A3, SULT1B1, and SULT1E1, and the purchased Sf-9 cytosol fraction (PanVera, Madison, WI) containing SULT1A1*2. For studies with HL cytosol, SULT1A1*1, and SULT1E1, we examined two concentrations of 3-OH-BaP, 0.1 μM and 1.0 μM.
as §8

For assay [12], the target named is T4, SULT1E1. In words: Inhibition of 3-OH-BaP sulfotransferase activity by OH-PCBs with cDNA-expressed SULT1E1. It is filed as biochemical. The following applies: mean of duplicates, read-out: IC50 SULT1E1.
From the text: as §1, §5, §9, §8

Assay [13] addresses T2, SULT1B1. In words: Inhibition of 3-OH-BaP sulfotransferase activity by OH-PCBs with cDNA-expressed SULT1B1. Type of assay: biochemical. The following applies: 1.0 μM 3-OH-BaP; mean of duplicates; read-out: IC50 SULT1B1.
From the text: as §1, §5, §9, §8

Assay [14] has as its target T5, SULT1A1*2. Put plainly: Inhibition of 3-OH-BaP sulfotransferase activity by OH-PCBs with expressed SULT1A1*2. It is filed as biochemical. The following applies: 0.1 μM 3-OH-BaP; mean of duplicates; read-out: IC50 SULT1A1*2.
From the text: as §1, §5, §9, §8

For assay [15], the target named is T1, SULT1A3. In words: Inhibition of 3-OH-BaP sulfotransferase activity by 50 μM OH-PCBs with cDNA-expressed SULT1A3. It is filed as biochemical. The following applies: 50 μM OH-PCB; 1.0 μM 3-OH-BaP.
From the text: as §1, §5, §9, §8

Where [16] appears, read: HL 2 cytosol (heterozygous SULT1A1*1/*2).
The mark [17] stands for this setting: HL 3 cytosol (homozygous SULT1A1*2).

Chain of HL cytosol 3-OH-BaP sulfotransferase (P50225 whole entry): as the sequence (P50225 whole entry) above
T1 sequence (P0DMM9 whole entry): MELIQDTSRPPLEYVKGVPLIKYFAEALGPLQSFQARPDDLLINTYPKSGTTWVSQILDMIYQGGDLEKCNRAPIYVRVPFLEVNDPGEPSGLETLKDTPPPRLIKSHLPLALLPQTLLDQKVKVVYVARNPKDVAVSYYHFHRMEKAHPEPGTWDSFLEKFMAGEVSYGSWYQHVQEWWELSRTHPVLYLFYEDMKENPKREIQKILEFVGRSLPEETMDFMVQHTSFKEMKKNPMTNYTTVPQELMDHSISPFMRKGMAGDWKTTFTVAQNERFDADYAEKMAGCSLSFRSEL

With `Oc1ccc2ccc3cccc4ccc1c2c34` [1-hydroxypyrene], the Km in [1] was 0.021 µM; in assay [2] it was 0.008 µM; in assay [3] it was 0.8 µM.

In the case of `Oc1ccc2ccc3c4ccccc4cc4ccc1c2c43` [Compound 3-OH-BaP, 3-hydroxybenzo[a]pyrene], the substrate inhibition entry in assay [4] and in [5] was “did not exhibit substrate inhibition” throughout. Also, the V1 in [6] (HL 1 cytosol (homozygous SULT1A1*1), maximum rate, noninhibitory substrate range) was 121 pmol/min/mg protein; in [6] (setting [16]) it was 93.0 pmol/min/mg protein; in [6] (setting [17]), 94 pmol/min/mg protein and 94.4 pmol/min/mg protein; in [6] (HL cytosol, mean ± SD of three livers), 102 ± 15.8 pmol/min/mg protein; in assay [9] it was 4,400 pmol/min/mg protein. The V2 in [6] (HL 1 cytosol (homozygous SULT1A1*1), minimum rate, inhibitory substrate range) is reported as 2 pmol/min/mg protein; in [6] (setting [16]), 38.50 pmol/min/mg protein; in [6] (setting [17]) it was 31.0 pmol/min/mg protein; in [9] it was 290 pmol/min/mg protein. Moreover, the “3-OH-BaP concentration resulting in a decrease in activity (substrate inhibition)” value in assay [6] (HL cytosol) is above 0.15 µM. Also, the “3-OH-BaP concentration showing substrate inhibition” value in [7] and in assay [8] was above 0.15 µM each time. In assay [9] (substrate inhibition), this compound yielded a Ki of 0.16 µM. In assay [10] (0 μM B5, mean ± SD n = 3), the “Vmax (3-OH-BaP sulfotransferase activity)” value stood at 69.1 ± 8.0 B pmol/min/mg protein.

In the case of `Oc1ccc(-c2c(Cl)c(Cl)cc(Cl)c2Cl)cc1Cl` [Compound B5, 4′-OH-CB112], the IC50 was 1.17 µM in assay [11] (0.1 μM 3-OH-BaP); 42.5 µM in assay [11] (1.0 μM 3-OH-BaP); 5.35 µM in [12] (0.1 μM 3-OH-BaP); 23.2 µM in [12] (1.0 μM 3-OH-BaP); 86.5 µM in assay [13]; 1.48 µM in assay [14]. Also, the type of inhibition result in assay [10] (3-OH-BaP 35 to 150 nM) was “noncompetitive”. Also, the “Vmax (3-OH-BaP sulfotransferase activity)” value in [10] (in presence of 0.25 μM B5, two livers) stood at 56.3 ± 6.0 B pmol/min/mg protein; in [10] (in presence of 0.5 μM B5, n = 3), 41.2 ± 3.3 C pmol/min/mg protein; in assay [10] (in presence of 1.0 μM B5, n = 3), 33.3 ± 3.2 D pmol/min/mg protein. Moreover, the “inhibition of 3-OH-BaP sulfonation by SULT1A3” value in [15] is reported as “did not inhibit”.

These data come from article PMC1257591, “In Vitro Inhibition of Human Hepatic and cDNA-Expressed Sulfotransferase Activity with 3-Hydroxybenzo[a]pyrene by Polychlorobiphenylols” (Environmental Health Perspectives, 2005).
